Data on 1 compound can be found in US20090110739A1, “Targeted cancer chemotherapy using synthetic nanoparticles” (University of North Texas Health Science Center at Forth …, priority 2007, published 2009).

Holding throughout (assay type): cell-based
In one assay the test system is OV1063. As to the kind of experiment: MTT cytotoxicity, OV1063 cancer cell line. The conditions noted are these: Homo sapiens, OV-1063; OV1063 cells.
The next assay deals with OVCAR 3. As to the kind of experiment: MTT cytotoxicity, OVCAR 3 cancer cell line. The following applies: Homo sapiens; OVCAR 3 cells.
A further assay concerns DU145. Briefly: MTT cytotoxicity, DU145 cancer cell line. The conditions noted are these: Homo sapiens, DU-145; DU145 cells.
The next assay deals with cancer cells. Briefly: Uptake of paclitaxel encapsulated in sHDL nanoparticles by cancer cells. The conditions noted are these: encapsulated in the delivery particles; HDL receptors; FIG. 7.

SMILES strings stand for the structures.

For the compound `CC(=O)O[C@H]1C(=O)[C@@]2(C)[C@H]([C@H](OC(=O)c3ccccc3)[C@]3(O)C[C@H](OC(=O)[C@H](O)[C@@H](NC(=O)c4ccccc4)c4ccccc4)C(C)=C1C3(C)C)[C@]1(OC(C)=O)CO[C@@H]1C[C@@H]2O` [Ptx, paclitaxel], the results for the IC50 in the assay with OV1063, in the assay with OVCAR 3 and in the assay on DU145 were 14.2 µM, 70.3 µM and 14.2 µM, respectively. Besides, the “uptake by cancer cells” value in the assay with cancer cells was “taken up by cancer cells via this receptor mediated mechanism”.
